Experimental data reported in patent publication US10111435B2, “Herbicidal compositions containing N-(1,3,4-oxadiazol-2-yl)-aryl carboxylic acid amides” (BAYER CROPSCIENCE AKTIENGESELLSCHAFT, priority 2013, dated 2018).

Columns and labels:
Format in all cases: in vivo
[1] = tested on: Eleusine indica (ELEIN); test: greenhouse post-emergence herbicidal efficacy against ELEIN
Procedure: (§1) All trials whose results are shown were conducted in a greenhouse by the methodology specified below. The effect of the inventive herbicidal compositions was examined on the following harmful plants 14 and 21 days after application:
(§2) Echinochloa crus-galli (ECHCG), Eleusine indica (ELEIN), Setaria viridis (SETVI), Amaranthus retroflexus (AMARE), Chenopodium album (CHEAL), Kochia scoparia (KCHSC), Solanum nigrum (SOLNI), Avena fatua (AVEFA), Bromus sterilis (BROST), Lolium multiflorum (LOLMU), Phalaris minor (PHAMI), Poa annua (POAAN), Galium aparine (GALAP), Matricaria inodora (MATIN) and Polygonum convolvulus (POLCO).
(§3) The harmful plant seeds were sown in pots (diameter 8 cm) with sandy loam soil and germinated under optimal conditions. The inventive herbicidal compositions or the active ingredients alone were applied post-emergence to the planted pots with a spray volume of 300 L/ha. The trial was conducted in a greenhouse under optimum growth conditions. The herbicidal effects were assessed visually by comparison of untreated and treated plants. The percentages mean: 0%=no effects, 100%=the plants die off completely). The percentages are used to calculate interactions between individual treatments and combination treatments according to S. R. Colby, Weeds 15, pages 20 to 22 (1967).
(§4) The abbreviations mean: • a.i.=active ingredient • E^C=expected value according to Colby (E^C=A+B−A×B/100) • Diff: =difference (%) of measured value from expected value (%) (measured value minus expected value)
(§5) Assessment: • measured value E is greater than E^C:->synergism (+ diff.) • measured value E equals E^C:->additive effect • measured value E is smaller than E^C:->antagonism(− diff.)

[2] = tested on: Matricaria inodora (MATIN); test: greenhouse post-emergence herbicidal efficacy against MATIN
Procedure: as §1, §2
as §3, with “completely).” for “completely). The percentages are used to calculate interactions between individual treatments and combination treatments according to S. R. Colby, Weeds 15, pages 20 to 22 (1967).”
as §4, §5

[3] = tested on: Bromus sterilis (BROST); test: greenhouse post-emergence herbicidal efficacy against BROST
Procedure: as §1, §2
as §3, with “completely).” for “completely). The percentages are used to calculate interactions between individual treatments and combination treatments according to S. R. Colby, Weeds 15, pages 20 to 22 (1967).”
as §4, §5

[4] = tested on: Setaria viridis (SETVI); test: greenhouse post-emergence herbicidal efficacy against SETVI
Procedure: as §1, §2, §3, §4, §5

[5] = tested on: Echinochloa crus-galli (ECHCG); test: greenhouse post-emergence herbicidal efficacy against ECHCG; settings: 4 g of a.i./ha
Procedure: as §1, §2, §3, §4, §5

[6] = tested on: Lolium multiflorum (LOLMU); test: greenhouse post-emergence herbicidal efficacy against LOLMU
Procedure: as §1, §2
as §3, with “completely).” for “completely). The percentages are used to calculate interactions between individual treatments and combination treatments according to S. R. Colby, Weeds 15, pages 20 to 22 (1967).”
as §4, §5

[7] = tested on: Kochia scoparia (KCHSC); test: greenhouse post-emergence herbicidal efficacy against KCHSC; settings: 21 days after application, 4 g of a.i./ha
Procedure: as §1, §2, §3, §4, §5

[8] = tested on: Solanum nigrum (SOLNI); test: greenhouse post-emergence herbicidal efficacy against SOLNI; settings: 21 days after application
Procedure: as §1, §2, §3, §4, §5

[9] = tested on: Poa annua (POAAN); test: greenhouse post-emergence herbicidal efficacy against POAAN
Procedure: as §1, §2
as §3, with “completely).” for “completely). The percentages are used to calculate interactions between individual treatments and combination treatments according to S. R. Colby, Weeds 15, pages 20 to 22 (1967).”
as §4, §5

[10] = tested on: Avena fatua (AVEFA); test: greenhouse post-emergence herbicidal efficacy against AVEFA
Procedure: as §1, §2
as §3, with “completely).” for “completely). The percentages are used to calculate interactions between individual treatments and combination treatments according to S. R. Colby, Weeds 15, pages 20 to 22 (1967).”
as §4, §5

[11] = tested on: Polygonum convolvulus (POLCO); test: greenhouse post-emergence herbicidal efficacy against POLCO
Procedure: as §1, §2
as §3, with “completely).” for “completely). The percentages are used to calculate interactions between individual treatments and combination treatments according to S. R. Colby, Weeds 15, pages 20 to 22 (1967).”
as §4, §5

[12] = tested on: Phalaris minor (PHAMI); test: greenhouse post-emergence herbicidal efficacy against PHAMI
Procedure: as §1, §2
as §3, with “completely).” for “completely). The percentages are used to calculate interactions between individual treatments and combination treatments according to S. R. Colby, Weeds 15, pages 20 to 22 (1967).”
as §4, §5

[13] = tested on: Amaranthus retroflexus (AMARE); test: greenhouse post-emergence herbicidal efficacy against AMARE
Procedure: as §1, §2, §3, §4, §5

[14] = tested on: Chenopodium album (CHEAL); test: greenhouse post-emergence herbicidal efficacy against CHEAL
Procedure: as §1, §2, §3, §4, §5

[15] = tested on: Galium aparine (GALAP); test: greenhouse post-emergence herbicidal efficacy against GALAP
Procedure: as §1, §2
as §3, with “completely).” for “completely). The percentages are used to calculate interactions between individual treatments and combination treatments according to S. R. Colby, Weeds 15, pages 20 to 22 (1967).”
as §4, §5

[16] = tested on: DIGSA; test: greenhouse post-emergence herbicidal efficacy against DIGSA
Procedure: as §1, §3, §4, §5

[17] = 21 days after application, 4 g of a.i./ha
[18] = 21 days after application, g of a.i./ha: A2-1 12.5, fluroxypyr 20
[19] = 21 days after application, g of a.i./ha: A2-1 12.5, fluroxypyr 80
[20] = 21 days after application, g of a.i./ha: A2-1 50, fluroxypyr 20
[21] = 21 days after application, g of a.i./ha: A2-1 50, fluroxypyr 80
[22] = 14 days after application, 12.5 g of a.i./ha
[23] = 14 days after application, 50 g of a.i./ha
[24] = 21 days after application, 0.25 g of a.i./ha
[25] = 21 days after application, 25 g of a.i./ha
[26] = 21 days after application, g of a.i./ha: A1-34 50, iodosulfuron-methyl-sodium 0.5
[27] = 21 days after application, g of a.i./ha: A1-34 200, iodosulfuron-methyl-sodium 2
[28] = 21 days after application, g of a.i./ha: A1-34 50, iodosulfuron-methyl-sodium 2
[29] = 14 days after application, 200 g of a.i./ha
[30] = 14 days after application, 0.5 g of a.i./ha
[31] = 14 days after application, 2 g of a.i./ha
[32] = 21 days after application, 2 g of a.i./ha
[33] = 14 days after application, 2.5 g of a.i./ha
[34] = 14 days after application, 10 g of a.i./ha
[35] = 21 days after application, g of a.i./ha: A1-55 2.5, glufosinate-ammonium 25
[36] = 21 days after application, g of a.i./ha: A1-55 2.5, glufosinate-ammonium 100
[37] = 21 days after application, g of a.i./ha: A1-55 10, glufosinate-ammonium 25
[38] = 21 days after application, g of a.i./ha: A1-55 10, glufosinate-ammonium 100

`Cc1nnc(NC(=O)c2ccc(C(F)(F)F)nc2C)o1` [A2-1] showed an Efficacy [1, 17] of 60%, an Efficacy [2, 18] of 80% and an Efficacy [2, 19] of 80%. It also gave an Efficacy [2, 20] of 85%, an Efficacy [2, 21] of 85% and an Efficacy [3, 22] of 0%. For the same compound, the Efficacy [3, 21] was 0%, the Efficacy [4, 17] was 20% and the Efficacy ([5]; 14 days after application) was 50%. It also gave an Efficacy ([5]; 21 days after application) of 40%, an Efficacy [6, 22] of 0% and an Efficacy [6, 23] of 0%. For the same compound, the Efficacy [6, 21] was 0%, the Efficacy [7] was 40% and the Efficacy ([8]; 1 g of a.i./ha) was 10%. It also gave an Efficacy [9, 22] of 15%, an Efficacy [9, 18] of 0% and an Efficacy [9, 19] of 0%. It also gave an Efficacy [10, 22] of 0%, an Efficacy [10, 23] of 0% and an Efficacy [10, 19] of 0%. The Efficacy [10, 21] was 0%, the Efficacy [11, 23] was 70% and the Efficacy [11, 18] was 20%. For the same compound, the Efficacy [11, 20] was 60%, the Efficacy [12, 22] was 15% and the Efficacy [12, 19] was 0%. The Efficacy [12, 21] was 15%.
For `COC(=O)c1csc(C)c1S(=O)(=O)NC(=O)n1nc(OC)n(C)c1=O` [thiencarbazone-methyl], the Efficacy [13, 24] was 60%, the Efficacy [14, 24] was 50% and the Efficacy ([14]; 21 days after application, 1 g of a.i./ha) was 70%. It also gave an Efficacy ([8]; 1 g of a.i./ha) of 50%.
For `Cc1c(C(=O)Nc2nnc(C3CC3)o2)ccc(C(F)(F)F)c1[S+](C)[O-]` (stereo not drawn) [A1-34], the Efficacy [13, 25] was 30%, the Efficacy ([13]; 21 days after application, 100 g of a.i./ha) was 50% and the Efficacy [2, 26] was 50%. For the same compound, the Efficacy [15, 23] was 50%, the Efficacy [15, 26] was 20% and the Efficacy [15, 27] was 40%. The Efficacy [3, 23] was 10%, the Efficacy [3, 28] was 15% and the Efficacy [3, 27] was 35%. The Efficacy [14, 25] was 70%, the Efficacy [6, 23] was 5% and the Efficacy [6, 29] was 30%. The Efficacy ([8]; 25 g of a.i./ha) was 10%, the Efficacy [9, 29] was 85% and the Efficacy [10, 27] was 5%. For the same compound, the Efficacy [11, 29] was 30%, the Efficacy [11, 26] was 0% and the Efficacy [11, 28] was 0%. For the same compound, the Efficacy [12, 29] was 60%.
Work on `Cc1nnc(NC(=O)c2ccc(C(F)(F)F)c(-n3cccn3)c2Cl)o1` [A1-55] yielded an Efficacy [13, 30] of 20%, an Efficacy ([13]; 21 days after application, 0.5 g of a.i./ha) of 10% and an Efficacy [1, 31] of 40%. For the same compound, the Efficacy [1, 32] was 30%, the Efficacy [2, 33] was 0% and the Efficacy [2, 34] was 30%. For the same compound, the Efficacy [2, 35] was 0%, the Efficacy [2, 36] was 0% and the Efficacy [2, 37] was 20%. For the same compound, the Efficacy [2, 38] was 20%, the Efficacy [15, 33] was 0% and the Efficacy [15, 34] was 30%. For the same compound, the Efficacy [15, 37] was 15%, the Efficacy [3, 33] was 5% and the Efficacy [3, 36] was 0%. The Efficacy [3, 37] was 10%, the Efficacy [4, 31] was 40% and the Efficacy [4, 32] was 30%. The Efficacy [14, 31] was 70%, the Efficacy [16, 30] was 20% and the Efficacy [16, 32] was 30%. The Efficacy [6, 33] was 0%, the Efficacy [6, 34] was 15% and the Efficacy [6, 36] was 0%. The Efficacy [6, 38] was 10%, the Efficacy [9, 33] was 5% and the Efficacy [9, 34] was 20%. It also gave an Efficacy [9, 36] of 0%, an Efficacy [9, 38] of 0% and an Efficacy [10, 33] of 0%. It also gave an Efficacy [10, 36] of 0%, an Efficacy [10, 38] of 10% and an Efficacy [11, 33] of 0%. It also gave an Efficacy [11, 34] of 0%, an Efficacy [11, 37] of 0% and an Efficacy [11, 38] of 0%. It also gave an Efficacy [12, 33] of 0%, an Efficacy [12, 34] of 25% and an Efficacy [12, 35] of 0%. The Efficacy [12, 36] was 0%, the Efficacy [12, 37] was 5% and the Efficacy [12, 38] was 5%.
